Results reported in US20130209439A1, “INHIBITORS OF PDE4 BINDING TO HSP20” (THE UNIVERSITY COURT OF THE UNIVERSITY OF GLASGOW, priority 2010, published 2013).
Where no end group is shown, it is not given here.

Legend:
[1] = system: neonatal cardiac myocytes; assay: Cardiac myocyte size by xCELLigence impedance (normalised cell index); assay type: cell-based, rat; settings: 24 hour isoprenaline 10 μM, 30 min pre-treatment with 10 μM peptide
Procedure: FIG. 7. Peptide disruption of the PDE4D-HSP20 complex attenuates the hypertrophic response triggered by constant […]-agonist treatment. A, Upper panel. The area covered by isolated cardiac myocytes was used as a measure of cell size. Lower panel, Graphical depiction of the mean areas (N=100) of cells following 24 hours of indicated treatments. B, impedance measurements were used to calculate continuous normalised cell index using exCELLigence technology Normalised mean (n=4) cell index after 24 hours of indicated treatments.
The E-Plate 96 (Roche) was used for these experiments^45. This comprises a 96-well plate with integral sensor electrode arrays to measure cell impedance. […] E-plate 96 is a 96-well microtiter plate with incorporated gold cell sensor arrays in the bottom, which allows impedance inside each well to be monitored and assayed in real time. […] The impedance measured between electrodes in an individual well depends on electrode geometry, ion concentration in the well and whether or not cells are attached to the electrodes^45. In the absence of cells, electrode impedance is mainly determined by the ion environment both at the electrode/solution interface and in the bulk solution. […] Small changes in impedance can also be recorded when cells temporally change shape or size in response to agonists^46,57. […]

[2] = system: phospho-HSP20 in HEK293 cells; assay: HSP20 Ser16 phosphorylation in HSP20-transfected HEK293 cells treated with peptide; assay type: cell-based; settings: 10 μM peptide, 0-120 min
From the text: FIG. 6. Peptide disruption of the PDE4D-HSP20 complex promotes PKA phosphorylation on Ser16. A, Upper panel. HEK293 cells were transfected with HSP20 and PDE4D5. Immunoprecipitation of HSP20 done in the presence increasing concentrations of Peptide 906 (SEQ ID NO: 36) and Peptide control (SEQ ID NO: 37) were probed for PDE4D5. Lower panel. Densitometric analysis of amount of PDE4D5 in HSP20 immunoprecipitates normalised to expression level. Data representative of n=3. B, Purified preparations of HSP20-His and PDE4D5-GST were subject to an ELISA assay containing increasing amounts of ‘Peptide 906’ and ‘peptide control’. C, Upper panel, HSP20 was transfected into HEK293 cells and treated with ‘Peptide 906’ for indicated times. Cellular lysates were blotted for HSP20 and phospho-HSP20. Middle panel, HSP20 was transfected into HEK293 cells and treated with ‘Peptide 906’ or ‘peptide control’ for indicated times. Cellular lysates were blotted for HSP20 and phospho-HSP20. Lower panel, Densitometric analysis of phosphorylation of HSP20 normalised to expression level (n=3).
PolyFect transfection reagent was from Qiagen. […]
HEK293B2 cells are a stable cell line overexpressing the GFP-tagged β2AR were cultured as previously described^48. […] Protein concentration of lysates were determined using the Bradford assay and all samples were equalised for protein concentration. […]

Substance: Peptide 906: stearoylated, cell-permeable disrupter peptide of PDE4D5 residues E468-K492 (SEQ ID NO: 36) (ENHHLAVGFKLLQEENSDIFQNLTK; also: stearoylated, site not given here)
- cell size (normalised cell index, impedance) of cardiac myocytes [1]: could be rescued
- phosphorylation of HSP20 at Ser16 [2]: robust and significant increase in the phosphorylation of HSP20 at Ser16
